The supplement of paper PMC6045584
± gives the standard deviation of the averaged measurements.

What follows are test systems tested with Oc1ccc(/C=C/c2cc(O)cc(O)c2)cc1 [RESVERATROL] (assay: surviving fraction relative to DMSO-only wells; higher = less growth inhibition). Conditions: 0.5 nM; exposure time: 5 days.
Summary of the method: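 Lines were retained only if, across three screens, replicate Pearson r was >0.7 and median Z' was >0.3. Viability was measured as CellTiter-Glo luminescence and reported as surviving fraction relative to the median of DMSO-only wells. Readings followed 10 minutes at room temperature, after log-phase tumour cells seeded at 250–500 per well in 384-well plates had been exposed, from 24 hours after seeding, continuously for five days to inhibitors at 0.5, 1, 5, 10, 50, 100, 500 and 1000 nM.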
With HMLE3 BREAST the surviving fraction was 1.01 ± 0.067.
Test System HS578T BREAST has a surviving fraction of 1.15 ± 0.15.
Test System HMT3552 BREAST has a surviving fraction of 1.06 ± 0.038.
Test System CCK81 LARGE INTESTINE has a surviving fraction of 0.73 ± 0.017.
Test System HCC38 BREAST has a surviving fraction of 1.21 ± 0.057.
For HS57T BREAST, the surviving fraction was 0.971 ± 0.038.
In the case of G292 BONE, the surviving fraction is reported as 0.995 ± 0.051.
Test System HCC70 BREAST has a surviving fraction of 1.09 ± 0.07.

Same assay, conditions: 1 nM; exposure time: 5 days
HMLE3 BREAST was tested, and the surviving fraction was 1.03 ± 0.089.
In the case of HS578T BREAST, the surviving fraction is reported as 1.15 ± 0.036.
For HMT3552 BREAST, the surviving fraction was 1.12 ± 0.047.
With CCK81 LARGE INTESTINE the surviving fraction was 0.79 ± 0.13.
With HCC38 BREAST the surviving fraction was 1.37 ± 0.15.
In the case of HS57T BREAST, the surviving fraction is reported as 1.01 ± 0.073.
Work on G292 BONE yielded a surviving fraction of 0.988 ± 0.011.
HCC70 BREAST gave a surviving fraction of 1.11 ± 0.11.

Same assay, conditions: 5 nM; exposure time: 5 days
In the case of HMLE3 BREAST, the surviving fraction is reported as 1.02 ± 0.051.
Test System HS578T BREAST has a surviving fraction of 1.24 ± 0.14.
With HMT3552 BREAST the surviving fraction was 1.09 ± 0.027.
In the case of CCK81 LARGE INTESTINE, the surviving fraction is reported as 0.71 ± 0.065.
HCC38 BREAST was tested, and the surviving fraction was 1.48 ± 0.13.
HS57T BREAST gave a surviving fraction of 0.984 ± 0.11.
For G292 BONE, the surviving fraction was 1.06 ± 0.018.
Work on HCC70 BREAST yielded a surviving fraction of 1.14 ± 0.13.

Same assay, conditions: 10 nM; exposure time: 5 days
HMLE3 BREAST was tested, and the surviving fraction was 1.03 ± 0.061.
For HS578T BREAST, the surviving fraction was 1.14 ± 0.049.
HMT3552 BREAST showed a surviving fraction of 1.03 ± 0.067.
In the case of CCK81 LARGE INTESTINE, the surviving fraction is reported as 0.724 ± 0.037.
For HCC38 BREAST, the surviving fraction was 1.56 ± 0.2.
With HS57T BREAST the surviving fraction was 1.07 ± 0.028.
G292 BONE was tested, and the surviving fraction was 1.07 ± 0.032.
With HCC70 BREAST the surviving fraction was 1.04 ± 0.049.

Same assay, conditions: 50 nM; exposure time: 5 days
In the case of HMLE3 BREAST, the surviving fraction is reported as 1.04 ± 0.096.
HS578T BREAST was tested, and the surviving fraction was 1.03 ± 0.074.
With HMT3552 BREAST the surviving fraction was 1.07 ± 0.039.
With CCK81 LARGE INTESTINE the surviving fraction was 0.671 ± 0.058.
HCC38 BREAST showed a surviving fraction of 1.37 ± 0.063.
In the case of HS57T BREAST, the surviving fraction is reported as 1.02 ± 0.034.
G292 BONE showed a surviving fraction of 1.01 ± 0.027.
HCC70 BREAST showed a surviving fraction of 1.13 ± 0.066.

Same assay, conditions: 100 nM; exposure time: 5 days
Work on HMLE3 BREAST yielded a surviving fraction of 1.03 ± 0.13.
In the case of HS578T BREAST, the surviving fraction is reported as 1.27 ± 0.11.
HMT3552 BREAST showed a surviving fraction of 1.17 ± 0.056.
In the case of CCK81 LARGE INTESTINE, the surviving fraction is reported as 0.793 ± 0.11.
HCC38 BREAST showed a surviving fraction of 1.2 ± 0.16.
HS57T BREAST showed a surviving fraction of 1.04 ± 0.063.
G292 BONE gave a surviving fraction of 1.055 ± 0.0077.
Work on HCC70 BREAST yielded a surviving fraction of 1.06 ± 0.054.

Same assay, conditions: 500 nM; exposure time: 5 days
Test System HMLE3 BREAST has a surviving fraction of 1.06 ± 0.055.
HS578T BREAST showed a surviving fraction of 1.17 ± 0.22.
Test System HMT3552 BREAST has a surviving fraction of 1.12 ± 0.044.
CCK81 LARGE INTESTINE was tested, and the surviving fraction was 0.844 ± 0.085.
HCC38 BREAST showed a surviving fraction of 1.24 ± 0.14.
HS57T BREAST gave a surviving fraction of 1.01 ± 0.047.
Work on G292 BONE yielded a surviving fraction of 1.04 ± 0.017.
HCC70 BREAST showed a surviving fraction of 1.11 ± 0.075.

Same assay, conditions: 1000 nM; exposure time: 5 days
Test System HMLE3 BREAST has a surviving fraction of 1.12 ± 0.12.
HS578T BREAST was tested, and the surviving fraction was 1.12 ± 0.19.
Test System HMT3552 BREAST has a surviving fraction of 1.17 ± 0.055.
In the case of CCK81 LARGE INTESTINE, the surviving fraction is reported as 0.728 ± 0.039.
